Columns and labels:
[1] = test system: subchondral BME in the femoral subchondral bone; assay: Case report Example 1: subject, knee injury with subchondral BME, course of PPS injections; format: in vivo, human; conditions: for BME on T1 weighted MRI: subject, one week after completing 10 x 100 mg/ml IM injections, FIG. 1B vs FIG. 1A
Method: FIG. 1A is an MRI (T1 weighted scans) of subject […] showing the presence of bone marrow edema in the subchondral bone of the in left femoral condyle. Edema is evidenced by the reduced intensity of the signals in the semi-circular region beneath the articular cartilage. The MRI was taken 5 days following initial joint injury; and
FIG. 1B is an MRI (T1 weighted scans) of subject […] taken one week after completing a course of 10×100 mg/ml IM injection of pentosan polysulfate. […] Magnification of MRI image shown is slightly higher than for FIG. 1A.
A subject ([…]) in good general health while jogging on the footpath stumbled and fell laterally striking the pavement with their right knee. Next day the knee was swollen and extremely painful and when examined by a medical practitioner was diagnosed as avulsion of the collateral ligament attachment to tibial bone. […] Five days after sustaining the injury surgical repair was undertaken to re-attach the free ligament bone insertion to the tibia. However the knee pain persisted thereafter and was not relieved by use of analgesics or NSAIDs. Five weeks after the surgery a course of PPS, 100 mg/ml injections administered intramuscularly twice weekly for 5 weeks was initiated (total of 10 injections). After receiving the 6th injection, the pain and joint swelling had disappeared and one week after completion of the PPS course of injections the joint was again reviewed by T1 weighted MM.

[2] = test system: sub-chondral bone contusion (BME); assay: Case report Example 3: subject one, knee pain after sub-chondral bone contusion (BME), daily intramuscular PPS; format: in vivo, human; conditions: for knee pain: 100 mg intramuscular daily
Method: For example, in one instance, the pain suffered by a patient was so debilitating that the patient received a total of 7 intramuscular injections (7×1 ml ampoules PPS [7×100 mg]) over a period of 7 day until the pain resolved. This equated to just over 1.0 mg/kg PPS daily.
A healthy person one with genu varum of approximately 5 degrees slipped on a step at an airport terminal while rushing to catch an international flight such that their left foot made an unexpected high impact with the ground. After arriving at their destination late that evening, the person retired for the night but was woken in the early hours of the morning with intense throbbing pain originating from the medial compartment of their left knee joint.

[3] = cited from earlier work
OA = conditions: cited from earlier work

pentosan polysulfate [PPS]
pain and joint swelling ([1]; subject three, 100 mg/ml intramuscularly twice weekly for 5 weeks, after the 6th injection): disappeared
BME on T1 weighted MRI [1]: completely resolved
BME on T1 weighted MRI ([1]; listed as pentosan polysulfate): absence of bone marrow edema
pain ([2]; a patient, 7 intramuscular injections (7 x 100 mg) over 7 days, just over 1.0 mg/kg daily): resolved
knee pain ([2]; subject one, after the 7th injection): completely resolved
knee pain ([2]; subject one, following the 5th injection): substantially subsided
recurrence of debilitating joint pain ([2]; subject one, subsequent months following the PPS course of therapy): did not re-occur
anticoagulant activity compared with heparin [3]: weaker anticoagulant than heparin
symptoms in patients with OA (OA): symptomatic relief

Source: US11406660B2, “Treatment of bone marrow edema (OEDEMA) with polysulfated polysaccharides” (PARADIGM HEALTH SCIENCES PTY LTD, priority 2011, dated 2022)
